# Assay results published in PubChem BioAssay AID1963845 (Molecular Pharmacology Branch, DTP, NCI, 2024).
# System: 429239-143-T-J1-PDC complex spheroid viability
# Experiment: Anticancer human tumor 429239-143-T-J1-PDC patient-derived small cell lung carcinoma cell line growth inhibition [POLQ]
# Conditions: for IC50: curve of first compound; for viability, T/C: stronger effect = lower value
# Procedure, shortened: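 Patient-derived tumour cells were co-cultured with HUVEC and mesenchymal stem cells as multicellular spheroids at 37 °C. They were treated with POLQ inhibitors (novobiocin, ART-558, RP6685) alone or combined with other agents. Top concentrations were at or near clinical Cmax (otherwise 10 microM; SN-38 at 1 microM), decreasing in half-log steps.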
# [1] = second compound 0.0316 µM, first compound 0.0316 µM
# [2] = second compound 0.0316 µM, first compound 0.1 µM
# [3] = second compound 0.0316 µM, first compound 0.316 µM
# [4] = second compound 0.0316 µM, first compound 1 µM
# [5] = second compound 0.0316 µM, first compound 3.16 µM
# [6] = second compound 0.0316 µM, first compound 10 µM
# [7] = second compound 0.1 µM, first compound 0.0316 µM
# [8] = second compound 0.1 µM, first compound 0.1 µM
# [9] = second compound 0.1 µM, first compound 0.316 µM
# [10] = second compound 0.1 µM, first compound 1 µM
# [11] = second compound 0.1 µM, first compound 3.16 µM
# [12] = second compound 0.1 µM, first compound 10 µM
# [13] = second compound 0.316 µM, first compound 0.0316 µM
# [14] = second compound 0.316 µM, first compound 0.1 µM
# [15] = second compound 0.316 µM, first compound 0.316 µM
# [16] = second compound 0.316 µM, first compound 1 µM
# [17] = second compound 0.316 µM, first compound 3.16 µM
# [18] = second compound 0.316 µM, first compound 10 µM
# [19] = second compound 1 µM, first compound 0.0316 µM
# [20] = second compound 1 µM, first compound 0.1 µM
# [21] = second compound 1 µM, first compound 0.316 µM
# [22] = second compound 1 µM, first compound 1 µM
# [23] = second compound 1 µM, first compound 3.16 µM
# [24] = second compound 1 µM, first compound 10 µM
# [25] = second compound 3.16 µM, first compound 0.0316 µM
# [26] = second compound 3.16 µM, first compound 0.1 µM
# [27] = second compound 3.16 µM, first compound 0.316 µM
# [28] = second compound 3.16 µM, first compound 1 µM
# [29] = second compound 3.16 µM, first compound 3.16 µM
# [30] = second compound 3.16 µM, first compound 10 µM
# [31] = second compound 10 µM, first compound 0.0316 µM
# [32] = second compound 10 µM, first compound 0.1 µM
# [33] = second compound 10 µM, first compound 0.316 µM
# [34] = second compound 10 µM, first compound 1 µM
# [35] = second compound 10 µM, first compound 3.16 µM
# [36] = second compound 10 µM, first compound 10 µM
# 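Further: luminescence signal used as surrogate measure of viable cells; spheroids exposed to compounds for seven days before readout.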
# 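Wherever viability, T/C is given: 100% = DMSO vehicle control viability as luminescence relative to vehicle.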
compound,measurement,setting,value
CC(=O)O[C@H]1C(=O)[C@@]2(C)[C@H]([C@H](OC(=O)c3ccccc3)[C@]3(O)C[C@H](OC(=O)[C@H](O)[C@@H](NC(=O)c4ccccc4)c4ccccc4)C(C)=C1C3(C)C)[C@]1(OC(C)=O)CO[C@@H]1C[C@@H]2O + COC1C(OC(N)=O)C(O)C(Oc2ccc3c(O)c(NC(=O)c4ccc(O)c(CC=C(C)C)c4)c(=O)oc3c2C)OC1(C)C,IC50,second compound 0.0316 µM,< 9.49 nM
same,IC50,second compound 0.1 µM,< 9.49 nM
same,IC50,second compound 0.316 µM,< 9.49 nM
same,IC50,second compound 1 µM,< 9.49 nM
same,IC50,second compound 3.16 µM,< 9.49 nM
same,IC50,second compound 10 µM,< 9.49 nM
same,"viability, T/C","second compound 0.0316 µM, first compound 0.00949 µM",12.5%
same,"viability, T/C","second compound 0.0316 µM, first compound 0.03 µM",12.8%
same,"viability, T/C","second compound 0.0316 µM, first compound 0.0949 µM",10.9%
same,"viability, T/C","second compound 0.0316 µM, first compound 0.3 µM",13.6%
same,"viability, T/C","second compound 0.0316 µM, first compound 0.949 µM",11.8%
same,"viability, T/C","second compound 0.0316 µM, first compound 3 µM",13.3%
same,"viability, T/C","second compound 0.1 µM, first compound 0.00949 µM",14.8%
same,"viability, T/C","second compound 0.1 µM, first compound 0.03 µM",13.2%
same,"viability, T/C","second compound 0.1 µM, first compound 0.0949 µM",13.4%
same,"viability, T/C","second compound 0.1 µM, first compound 0.3 µM",11.5%
same,"viability, T/C","second compound 0.1 µM, first compound 0.949 µM",12.4%
same,"viability, T/C","second compound 0.1 µM, first compound 3 µM",14.3%
same,"viability, T/C","second compound 0.316 µM, first compound 0.00949 µM",13.8%
same,"viability, T/C","second compound 0.316 µM, first compound 0.03 µM",11.2%
same,"viability, T/C","second compound 0.316 µM, first compound 0.0949 µM",11.2%
same,"viability, T/C","second compound 0.316 µM, first compound 0.3 µM",11.3%
same,"viability, T/C","second compound 0.316 µM, first compound 0.949 µM",12.4%
same,"viability, T/C","second compound 0.316 µM, first compound 3 µM",12.2%
same,"viability, T/C","second compound 1 µM, first compound 0.00949 µM",12.5%
same,"viability, T/C","second compound 1 µM, first compound 0.03 µM",12.4%
same,"viability, T/C","second compound 1 µM, first compound 0.0949 µM",12.6%
same,"viability, T/C","second compound 1 µM, first compound 0.3 µM",11.6%
same,"viability, T/C","second compound 1 µM, first compound 0.949 µM",14.2%
same,"viability, T/C","second compound 1 µM, first compound 3 µM",13.9%
same,"viability, T/C","second compound 3.16 µM, first compound 0.00949 µM",15.9%
same,"viability, T/C","second compound 3.16 µM, first compound 0.03 µM",12.6%
same,"viability, T/C","second compound 3.16 µM, first compound 0.0949 µM",12%
same,"viability, T/C","second compound 3.16 µM, first compound 0.3 µM",11.3%
same,"viability, T/C","second compound 3.16 µM, first compound 0.949 µM",15.8%
same,"viability, T/C","second compound 3.16 µM, first compound 3 µM",13.8%
same,"viability, T/C","second compound 10 µM, first compound 0.00949 µM",14.8%
same,"viability, T/C","second compound 10 µM, first compound 0.03 µM",12.8%
same,"viability, T/C","second compound 10 µM, first compound 0.0949 µM",12.1%
same,"viability, T/C","second compound 10 µM, first compound 0.3 µM",12.8%
same,"viability, T/C","second compound 10 µM, first compound 0.949 µM",12.6%
same,"viability, T/C","second compound 10 µM, first compound 3 µM",13.3%
COc1cccc2c1C(=O)c1c(O)c3c(c(O)c1C2=O)CC(O)(C(=O)CO)CC3OC1CC(N)C(O)C(C)O1 (stereo unspecified) + COC1C(OC(N)=O)C(O)C(Oc2ccc3c(O)c(NC(=O)c4ccc(O)c(CC=C(C)C)c4)c(=O)oc3c2C)OC1(C)C,IC50,second compound 0.0316 µM,41.1 nM
same,IC50,second compound 0.1 µM,36.4 nM
same,IC50,second compound 0.316 µM,48.2 nM
same,IC50,second compound 1 µM,37.6 nM
same,IC50,second compound 3.16 µM,34.6 nM
same,IC50,second compound 10 µM,34 nM
same,"viability, T/C",[1],60.4%
same,"viability, T/C",[2],13.3%
same,"viability, T/C",[3],14.5%
same,"viability, T/C",[4],0.23%
same,"viability, T/C",[5],0.15%
same,"viability, T/C",[6],0.13%
same,"viability, T/C",[7],55.3%
same,"viability, T/C",[8],15.8%
same,"viability, T/C",[9],12.3%
same,"viability, T/C",[10],0.13%
same,"viability, T/C",[11],0.08%
same,"viability, T/C",[12],0.1%
same,"viability, T/C",[13],68.8%
same,"viability, T/C",[14],14.4%
same,"viability, T/C",[15],14.2%
same,"viability, T/C",[16],0.13%
same,"viability, T/C",[17],0.12%
same,"viability, T/C",[18],0.12%
same,"viability, T/C",[19],56.3%
same,"viability, T/C",[20],16.2%
same,"viability, T/C",[21],12.7%
same,"viability, T/C",[22],0.13%
same,"viability, T/C",[23],0.16%
same,"viability, T/C",[24],0.48%
same,"viability, T/C",[25],53.5%
same,"viability, T/C",[26],15.6%
same,"viability, T/C",[27],11.9%
same,"viability, T/C",[28],0.14%
same,"viability, T/C",[29],0.18%
same,"viability, T/C",[30],0.3%
same,"viability, T/C",[31],52.8%
same,"viability, T/C",[32],14%
same,"viability, T/C",[33],14.8%
same,"viability, T/C",[34],0.24%
same,"viability, T/C",[35],0.29%
same,"viability, T/C",[36],0.22%
COc1ccc([C@@H](O)c2cc(-c3ncnc4cc(N5CCOCC5)ccc34)c(F)cc2Cl)nn1 + COC1C(OC(N)=O)C(O)C(Oc2ccc3c(O)c(NC(=O)c4ccc(O)c(CC=C(C)C)c4)c(=O)oc3c2C)OC1(C)C,IC50,second compound 0.0316 µM,3070 nM
same,IC50,second compound 0.1 µM,3330 nM
same,IC50,second compound 0.316 µM,3950 nM
same,IC50,second compound 1 µM,3000 nM
same,IC50,second compound 3.16 µM,3780 nM
same,IC50,second compound 10 µM,3640 nM
same,"viability, T/C",[1],99.5%
same,"viability, T/C",[2],89.1%
same,"viability, T/C",[3],94.5%
same,"viability, T/C",[4],85.6%
same,"viability, T/C",[5],49.1%
same,"viability, T/C",[6],8.54%
same,"viability, T/C",[7],96.2%
same,"viability, T/C",[8],87.7%
same,"viability, T/C",[9],100%
same,"viability, T/C",[10],87.2%
same,"viability, T/C",[11],51.9%
same,"viability, T/C",[12],10.8%
same,"viability, T/C",[13],109%
same,"viability, T/C",[14],101%
same,"viability, T/C",[15],99.4%
same,"viability, T/C",[16],85.4%
same,"viability, T/C",[17],60%
same,"viability, T/C",[18],9.63%
same,"viability, T/C",[19],103%
same,"viability, T/C",[20],96.8%
same,"viability, T/C",[21],92.5%
same,"viability, T/C",[22],76.4%
same,"viability, T/C",[23],48.7%
same,"viability, T/C",[24],9.8%
same,"viability, T/C",[25],96.6%
same,"viability, T/C",[26],102%
same,"viability, T/C",[27],91.1%
same,"viability, T/C",[28],93.4%
same,"viability, T/C",[29],57%
same,"viability, T/C",[30],11.2%
same,"viability, T/C",[31],107%
same,"viability, T/C",[32],107%
same,"viability, T/C",[33],95.3%
same,"viability, T/C",[34],78.3%
same,"viability, T/C",[35],59.3%
same,"viability, T/C",[36],8.07%
